Laboratory results as given in PubChem BioAssay (NCI).
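All cell lines were grown in 96-well plates and treated with compound for 48 hours. GI50: concentration for 50% inhibition of growth. The concentration for full growth arrest is given as TGI.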

Experiments:
Test in all cases: NCI tumour cell line growth inhibition, 48 h
CCRF-CEM leukemia = test system: CCRF-CEM leukemia
KM12 colon = test system: KM12 colon
MDA-MB-435 = test system: MDA-MB-435
SK-MEL-28 melanoma = test system: SK-MEL-28 melanoma
SK-MEL-2 melanoma = test system: SK-MEL-2 melanoma
UACC-62 melanoma = test system: UACC-62 melanoma
SN12C renal = test system: SN12C renal
SK-OV-3 ovarian = test system: SK-OV-3 ovarian
A498 renal = test system: A498 renal
U251 CNS = test system: U251 CNS
HS 578T breast = test system: HS 578T breast
OVCAR-5 ovarian = test system: OVCAR-5 ovarian
HL-60(TB) leukemia = test system: HL-60(TB) leukemia
HCT-15 colon = test system: HCT-15 colon
DU-145 prostate = test system: DU-145 prostate
A549 NSCLC = test system: A549 NSCLC
OVCAR-8 ovarian = test system: OVCAR-8 ovarian
HOP-92 NSCLC = test system: HOP-92 NSCLC
NCI-H522 lung = test system: NCI-H522 lung
SK-MEL-5 melanoma = test system: SK-MEL-5 melanoma
HOP-62 NSCLC = test system: HOP-62 NSCLC
MCF7 breast = test system: MCF7 breast
COLO 205 colon = test system: COLO 205 colon
OVCAR-3 ovarian = test system: OVCAR-3 ovarian
NCI-H226 lung = test system: NCI-H226 lung
NCI-H23 lung = test system: NCI-H23 lung
K-562 leukemia = test system: K-562 leukemia
IGROV1 ovarian = test system: IGROV1 ovarian
RPMI-8226 leukemia = test system: RPMI-8226 leukemia

**Q.** Which TGI (CCRF-CEM leukemia) does the source give for `CCN1CCN(Cc2ccc(NC(=O)Nc3nc4ccc(Oc5ccnc(C(=O)NC)c5)cc4s3)cc2C(F)(F)F)CC1` here?
**A.** 2.47 µM

**Q.** And the GI50 (KM12 colon)?
**A.** 0.019 µM

**Q.** What about the TGI (KM12 colon) of the same compound?
**A.** 1.63 µM

**Q.** And the GI50 (MDA-MB-435)?
**A.** 1.44 µM

**Q.** What about the TGI (MDA-MB-435) of the same compound?
**A.** 2.86 µM

**Q.** What about the GI50 (SK-MEL-28 melanoma) of the same compound?
**A.** 1.24 µM

**Q.** And the TGI (SK-MEL-28 melanoma)?
**A.** 2.69 µM

**Q.** And the GI50 (SK-MEL-2 melanoma)?
**A.** 1.75 µM

**Q.** And the TGI (SK-MEL-2 melanoma)?
**A.** 3.51 µM

**Q.** And the GI50 (UACC-62 melanoma)?
**A.** 1.7 µM

**Q.** And the TGI (UACC-62 melanoma)?
**A.** 3.28 µM

**Q.** What about the GI50 (SN12C renal) of the same compound?
**A.** 1.8 µM

**Q.** What about the TGI (SN12C renal) of the same compound?
**A.** 3.66 µM

**Q.** And the GI50 (SK-OV-3 ovarian)?
**A.** 1.82 µM

**Q.** What about the TGI (SK-OV-3 ovarian) of the same compound?
**A.** 3.36 µM

**Q.** What about the GI50 (A498 renal) of the same compound?
**A.** 1.83 µM

**Q.** What about the TGI (A498 renal) of the same compound?
**A.** 3.54 µM

**Q.** What about the GI50 (U251 CNS) of the same compound?
**A.** 1.85 µM

**Q.** What about the TGI (U251 CNS) of the same compound?
**A.** 3.45 µM

**Q.** And the GI50 (HS 578T breast)?
**A.** 2.01 µM

**Q.** And the TGI (HS 578T breast)?
**A.** 4.44 µM

**Q.** And the GI50 (OVCAR-5 ovarian)?
**A.** 2.12 µM

**Q.** What about the TGI (OVCAR-5 ovarian) of the same compound?
**A.** 3.93 µM

**Q.** And the GI50 (HL-60(TB) leukemia)?
**A.** 2.01 µM

**Q.** What about the TGI (HL-60(TB) leukemia) of the same compound?
**A.** 4.11 µM

**Q.** What about the GI50 (HCT-15 colon) of the same compound?
**A.** 1.65 µM

**Q.** What about the TGI (HCT-15 colon) of the same compound?
**A.** 3.38 µM

**Q.** What about the GI50 (DU-145 prostate) of the same compound?
**A.** 1.76 µM

**Q.** And the TGI (DU-145 prostate)?
**A.** 3.62 µM

**Q.** What about the GI50 (A549 NSCLC) of the same compound?
**A.** 1.99 µM

**Q.** And the TGI (A549 NSCLC)?
**A.** 3.71 µM

**Q.** And the GI50 (OVCAR-8 ovarian)?
**A.** 2.11 µM

**Q.** And the TGI (OVCAR-8 ovarian)?
**A.** 4.49 µM

**Q.** What about the GI50 (HOP-92 NSCLC) of the same compound?
**A.** 1.94 µM

**Q.** What about the TGI (HOP-92 NSCLC) of the same compound?
**A.** 3.91 µM

**Q.** What about the GI50 (NCI-H522 lung) of the same compound?
**A.** 1.68 µM

**Q.** What about the TGI (NCI-H522 lung) of the same compound?
**A.** 3.59 µM

**Q.** And the GI50 (SK-MEL-5 melanoma)?
**A.** 1.52 µM

**Q.** And the TGI (SK-MEL-5 melanoma)?
**A.** 2.9 µM

**Q.** And the GI50 (HOP-62 NSCLC)?
**A.** 1.95 µM

**Q.** And the TGI (HOP-62 NSCLC)?
**A.** 3.78 µM

**Q.** And the GI50 (MCF7 breast)?
**A.** 1.23 µM

**Q.** What about the TGI (MCF7 breast) of the same compound?
**A.** 2.89 µM

**Q.** What about the GI50 (COLO 205 colon) of the same compound?
**A.** 1.8 µM

**Q.** And the TGI (COLO 205 colon)?
**A.** 3.39 µM

**Q.** What about the GI50 (OVCAR-3 ovarian) of the same compound?
**A.** 1.89 µM

**Q.** And the TGI (OVCAR-3 ovarian)?
**A.** 3.59 µM

**Q.** What about the GI50 (NCI-H226 lung) of the same compound?
**A.** 1.45 µM

**Q.** What about the TGI (NCI-H226 lung) of the same compound?
**A.** 3.16 µM

**Q.** And the GI50 (NCI-H23 lung)?
**A.** 1.83 µM

**Q.** What about the TGI (NCI-H23 lung) of the same compound?
**A.** 3.86 µM

**Q.** What about the GI50 (K-562 leukemia) of the same compound?
**A.** 0.0514 µM

**Q.** And the TGI (K-562 leukemia)?
**A.** 1.27 µM

**Q.** What about the GI50 (IGROV1 ovarian) of the same compound?
**A.** 1.76 µM

**Q.** What about the TGI (IGROV1 ovarian) of the same compound?
**A.** 3.62 µM

**Q.** And the GI50 (RPMI-8226 leukemia)?
**A.** 2.1 µM

**Q.** And the TGI (RPMI-8226 leukemia)?
**A.** 5.34 µM
